Test results published in patent US20170000784A1, “Autophagy Inhibitors” (priority 2013, published 2017).
Where two headings read alike, the source gives them in different places.

Columns and labels:
[1] = tested on: UACC-1308 melanoma cell line; experiment: Cell viability (IC50) screen, CellTiter Glo, UACC-1308; type: cell-based; conditions: Homo sapiens
Description: (§1) U2OS cells were seeded at 500 cells per well in 5A McCoy's with 10% FBS in 96-well clear bottom, black-walled tissue culture plates. All melanoma cell lines (A375, UACC-91, UACC-257, UACC-502, UACC-903, UACC-1308, UACC-1940, UACC-2534, and UACC-3291) were seeded at 5,000 cells per well in RPMI 1640 with 10% FBS in 96-well clear bottom, black-walled tissue culture plates. After 24 hour incubation, cells were treated with VATG compounds in triplicate with a 10-point half log dose response from […] for 24 and 48 hours. Medium was removed and 2× CellTiter Glo (Promega, G7571) reagent mixed 1:1 with Opti-MEM (Invitrogen, 31985062) was added at 100 μL per well and incubated at room temperature for 15 minutes while rocking. 75 μL per well was moved to a white-walled 96-well plate and luminescence quantified using the 96 LUM program on an EnVision plate reader (PerkinElmer) and exported for analysis. All triplicate data points were averaged and luminescent readings for each treatment were normalized to vehicle control for change in viability. Dose response curves were input into SigmaPlot for IC50 calculations (Systat Software Inc).

[2] = tested on: UACC-257 melanoma cell line; experiment: Cell viability (IC50) screen, CellTiter Glo, UACC-257; type: cell-based; conditions: Homo sapiens
Description: as §1

A375 cells = type: cell-based, human; conditions: for IC10 concentration / Relative Growth Inhibition Compound A: A375 soft agar; for IC10 concentration: treated every other day for three weeks, single agent; for reduction of colony formation: combinatorial treatment with PLX-4032, each at IC10, FIG. 18A; for Relative Growth Inhibition Compound A: single compound at IC10; for expected (additive) reduction of colony formation: combination with PLX-4032, Bliss Independence prediction
Description: After three weeks of treatment, cells were fixed and stained in 1% paraformaldehyde in 1×PBS containing 0.005% crystal violet overnight. Cells were destained with multiple washes of 1×PBS to remove background staining. Plates were scanned and images quantified using Nikon NIS Elements software. To quantify, each image was sharpened and an ROI of equal size drawn around each well. Intensity thresholds were set to include all pixels equal to or greater than the intensity of the mean background fluorescence. Objects within the threshold of each ROI were quantified using an automated object count function and exported for analysis. Object number was quantified to denote total colony formation. […] Additivity was established when the expected viability determined by the Bliss independence model was equal to the actual viability. This model was chosen since the effects of both compounds are mutually non-exclusive and follow first order Michaelis-Menten kinetics.
To determine if the effects of each combination were more than, less than, or equal to additive, predictions for additivity were made using the Bliss Independence (Table 7), as disclosed in Yan H, Zhang B, Li S, Zhao Q. A formal model for analyzing drug combination effects and its application in TNF-alpha-induced NFkappaB pathway. BMC Syst. […] Drug combination studies and their synergy quantification using the Chou-Talalay method.

U2OS cells = experiment: Transmission electron microscopy of lysosomal vesicles; type: cell-based; conditions: 3 μM for 3 hours, FIG. 12B
Description: U2OS cells were seeded in 10 cm plates in 5A McCoy's with 10% FBS at 1×10^6 cells per plate. After 24 hours incubation, cells were treated with DMSO (vehicle control), CQ (3 or 100 μM), quinicrine (3 μM), VATG-027 (3 μM), or VATG-032 (3 μM) for three hours. Following, cells were trypsinized, washed, pelleted, and resuspended in 2% glutaraldehyde fixative (Sigma, G5882). Cell pellets were embedded in 2% agarose, post-fixed in osmium tetroxide, and dehydrated with an acetone series. Cell samples were infiltrated and embedded in Poly/Bed 812 resin and polymerized at 60° C. for 24 hours. Ultrathin sections of 70 nm were generated with a Power Tome XL (Boeckeler Instruments) and placed on copper grids. Sections were examined using a JEOL 100Cx Transmission Electron Microscope at 100 kV. Lysosomal structures were identified by a single membrane structure lacking cytosolic components (FIG. 12). Transmission electron microscopy services were performed by Michigan State University Center for Advanced Microscopy (East Lansing, Mich.).
To test the theory, lysosomal turnover was first evaluated by visualizing lysosomes using transmission electron microscopy (TEM). U2OS cells were initially treated with a CQ concentration above the effective dose (100 μM) for 3 hours as a positive control, and were then subsequently fixed and imaged. […] Once this phenotype was established, cells were treated with a lower concentration (3 μM) of CQ to compare each compound at the same concentration.

[3] = tested on: UACC-1940 melanoma cell line; experiment: Cell viability (IC50) screen, CellTiter Glo, UACC-1940; type: cell-based; conditions: Homo sapiens
Description: as §1

A375 melanoma cell line = experiment: Cell viability (IC50) screen, CellTiter Glo, A375; type: cell-based; conditions: Homo sapiens
Description: as §1

[4] = UACC-1308 cell viability, CellTiter Glo, read-out: IC50
[5] = UACC-257 cell viability, CellTiter Glo, read-out: IC50
[6] = Compound A combined with AZD-8055, each at IC10
[7] = Compound A combined with PLX-4032, each at IC10
[8] = UACC-1940 cell viability, CellTiter Glo, read-out: IC50
[9] = A-375, A375 cell viability, CellTiter Glo, 48 hours, read-out: IC50

Row | Structure (SMILES) | IC50 [1, 4] [µM] | IC50 [2, 5] [nM] | IC10 concentration (A375 cells) [nM] | Actual Growth Inhibition (A375 cells; [6]) | Actual Growth Inhibition (A375 cells; [7]) | reduction of colony formation (A375 cells) [%] | size and number of electron-lucent and electron-dense vesicles (TEM) (U2OS cells) | IC50 [3, 8] [µM] | IC50 (A375 melanoma cell line; [9]) [nM] | IC50 [1] [µM] | IC50 ([2]; UACC-257) [nM] | Relative Growth Inhibition Compound A (A375 cells) | Expected Bliss Additive Inhibition Value (A375 cells; [6]) | Expected Bliss Additive Inhibition Value (A375 cells; [7]) | expected (additive) reduction of colony formation (A375 cells) [%] | electron-opaque structures, consistent with lipid droplets (TEM) (U2OS cells) | IC50 [3] [µM] | IC50 (A375 melanoma cell line; A-375, 48 h) [nM]
1 | CCN(CC)CCCC(C)Nc1c2ccc(Cl)cc2nc2ccc(OC)cc12 (stereo not shown) [Quinacrine, quinacrine, reference compound] | 3.9 | 3000 | 64 | 0.54 | 0.59 | 59 | increase in both the size and number | 1.9 | 2300 |  |  |  |  |  |  |  |  | 
2 | CN1CCN(CCNc2c3c(nc4cc(Cl)ccc24)CCCC3)CC1 [Example 27, 6-Chloro-N-(2-(4-methylpiperazin-1-yl)ethyl)-1,2,3,4-tetrahydroacridin-9-amine] |  |  | 2 | 0.50 | 0.62 | 62 | increase in both the size and number |  |  | 14.9 | 25300 | 0.37 | 0.44 | 0.49 | 49 | appearance of several electron-opaque structures | 21.6 | 24300
3 | COc1ccc2nc3cc(Cl)ccc3c(NCCCCN3CCN(C)CC3)c2c1 [Example 7, 6-Chloro-2-methoxy-N-(4-(4-methylpiperazin-1-yl)butyl)acridin-9-amine] | 2.1 | 2000 | 5 | 0.57 | 0.64 | 64 | increase in both the size and number | 4 | 400 |  |  | 0.37 | 0.44 | 0.49 | 49 | appearance of several electron-opaque structures |  | 
